Tests used:
Experiment in all cases: Human cancer cell line panel, proliferation (sulforhodamine B)
Format in all cases: cell-based
[1] = tested on: kidney cancer cell line RXF-631L; conditions: 2 days of cultivation, read-out: 50% inhibitory concentration, proliferation
Description: (§1) The characteristics of the human cancer cell proliferation-inhibiting activity of the compounds of the present invention were examined by the “method of evaluating the mechanisms of action of compounds using a panel of human cancer cell lines” as proposed by Yamori et al. (cf. Gan to Kagaku Ryoho (Cancer and Chemotherapy) 29 Suppl. II (2002) and Cancer Chemother. Pharmacol. 52 Suppl. I, S74-79 (2003)).
(§2) This system includes […] (7 lung cancer, 6 stomach cancer, 5 colon cancer, 5 ovarian cancer, 6 brain tumor, […], 2 kidney cancer and 2 prostate cancer cell lines as well as one melanoma line) and the method comprises measuring the in vitro drug susceptibilities of those cancer cell lines and expressing the differences in drug susceptibility among the respective cancer cell lines as a fingerprint. […] By utilizing this property, it is possible to estimate the mechanisms of action of a compound. The above method is also characterized in that an anticancer substance showing new and unique mechanisms of action different from those of the existing anticancer agents can be selected.
(§3) Cancer cells of each cell line are sowed onto a 96-well plate, a sample solution is added on the next day and, after 2 days of cultivation, the cell proliferation is measured by colorimetry using sulforhodamine B. The deviations in effective concentration for the respective cancer cell lines from the mean effective drug concentration for the 39 cancer cell lines subjected to measurement are calculated and shown in the form a fingerprint.

[2] = tested on: ovarian cancer cell line OVCAR-5; conditions: OVCAR-5, 2 days of cultivation; read-out: 50% inhibitory concentration, proliferation
Description: as §1, §2, §3

[3] = tested on: lung cancer cell line NCI-H522; conditions: NCI-H522, 2 days of cultivation; read-out: 50% inhibitory concentration, proliferation
Description: as §1, §2, §3

[4] = tested on: lung cancer cell line NCI-H460; conditions: NCI-H460, 2 days of cultivation; read-out: 50% inhibitory concentration, proliferation
Description: as §1, §2, §3

[5] = tested on: ovarian cancer cell line OVCAR-8; conditions: OVCAR-8, 2 days of cultivation; read-out: 50% inhibitory concentration, proliferation
Description: as §1, §2, §3

[6] = tested on: colon cancer cell line HT-29; conditions: HT-29, 2 days of cultivation; read-out: 50% inhibitory concentration, proliferation
Description: as §1, §2, §3

| IC50 [1] [nM] | IC50 [2] [nM] | IC50 [3] [nM] | IC50 [4] [nM] | IC50 [5] [nM] | IC50 [6] [nM] | SMILES |
| --- | --- | --- | --- | --- | --- | --- |
| ≤ 100 | ≤ 100 | ≤ 10 | ≤ 100 | ≤ 100 | ≤ 100 | CC1(C)NC(=O)[C@H](CCCCCSCc2ccncc2)NC(=O)[C@H]2CCCN2C(=O)[C@H](Cc2ccccc2)NC1=O [Ky-26, cyclo(-L-Am7(4-pyridylmethyl)-Aib-L-Phe-D-Pro-)] |
| ≤ 100 | ≤ 100 | ≤ 10 | ≤ 100 | ≤ 100 | ≤ 100 | CC(=O)CSCCCCC[C@@H]1NC(=O)[C@H]2CCCN2C(=O)[C@H](Cc2ccccc2)NC(=O)C(C)(C)NC1=O [Ky-72, cyclo(-L-Am7(acetonyl)-Aib-L-Phe-D-Pro-)] |

From US8158587B2, “Compound having histone deacetylase-inhibiting activity, and pharmaceutical composition comprising the compound as an active ingredient” (Kyushu Institute of Technology, priority 2006, dated 2012)
